From patent US12128098B2, “Non-specific delayed-type hypersensitivity response to treat herpes simplex virus infection” (Squarex, LLC, priority 2015, dated 2024)
Several values for one entry are separate records, joined by “and”; a condition that tells them apart may be missing. Equal entries are not always repeated. Entries after “also recorded” stand apart in the source; their conditions may differ. Marks after values point to notes of the source that are not given here.

How the values were obtained:
[1] = system: HSV outbreak (cold sore on lower lip); assay: Treatment of an individual suffering from frequent and severe cold sores with topical DNCB at the site of the lesion; assay type: in vivo, human
Excerpt: The individual treated was one of the inventors. They are a person and was […] at the time of this treatment. The subject suffered from frequent cold sores on the lower lip. The outbreaks typically lasted 7-10 days and frequently longer. The subject had suffered from frequent cold sores most of their life. During the 6 months prior to this treatment, the outbreaks had been almost continuous. After getting over one outbreak, the next outbreak would begin often within a week.
In the morning they washed it off. A mild erythema in the area of the cold sore developed over 2-3 days and lasted a further 5 days, and the cold sore resolved in about 7 days, which was a typical duration for this individual or a slightly shorter duration than normal. […] Each outbreak would begin and completely resolve in one day. […] We think this may be because the immune system was recognizing not just the DNCB but also the herpes virus antigens with this second application. With the greater inflammation, the cold sore outbreak was worse than any of the outbreaks between the first and second DNCB treatments. […] The outbreak seemed to worsen as the inflammation associated with the DTH response worsened, and only lessened when the DTH response subsided.
When the outbreak subsided, the subject went another 6 months without any outbreaks to the present time.
For several months before and for the entire time described herein after the initial DNCB treatment, the subject took no antiviral medicines.

[2] = Presensitization and dose finding with DNCB solutions on the forearm (rash / erythema, DTH response); assay type: in vivo, human; details: for erythema on forearm: sensitized subject
Excerpt: The subject then applied a 0.1%, 0.2%, and 0.3% solutions to separate small spots on the forearm.

[3] = system: herpes labialis (HSV cold sore outbreaks); assay: Clinical trial: treatment of herpes labialis by squaric acid dibutyl ester, time to and proportion of cold sore outbreaks after the sensitization dose; assay type: in vivo, human; details: for Average days to first outbreak after the sensitization dose: 120 days used if no outbreak in 120 days
Description: Thirty patients are recruited meeting the following criteria:
In a screening interview, vital signs are recorded, and information is collected on any medications the patient is currently taking, previous and current treatments for cold sores, severity and duration of cold sores.
[…] Participants are told then to wait at least 2 weeks for their first treatment.
Throughout the study, the participants are asked to maintain a subject diary, in which they record each day any symptoms they experience, including fever, swelling, pain, redness, itching, burning, the size of any lesions, and any medications taken.
Visit 2: After the 2-week period to allow development of sensitivity to SADBE, upon the beginning of his or her next outbreak (within 72 hours of the first signs of an outbreak), each participant is swabbed at the site of the herpes labialis lesion with a 0.5% solution of SADBE in DMSO.
Visit 3: Upon the next distinct outbreak at least 2 weeks after the previous treatment at visit 2, study diaries are collected. If the diary reflects redness, blistering, or burning greater than 0.5 cm beyond the clinical lesion with the previous SADBE treatment, the dosage of SADBE is decreased to 0.1%. If the diary reflects no redness or inflammation attributable to SADBE treatment, dosage is increased to 2%. Otherwise, dosage is maintained at 0.5%. Participants are swabbed at the site of the herpes labialis lesion with the SADBE solution.
If the hypersensitivity reaction produced by SADBE is excessive, patients are treated with a topical steroidal antiinflammatory cream. When a patient requests, outbreaks are treated with oral valacyclovir until the outbreak resolves.
For at least 6 months after visit 2, patients maintain their diaries. Every two months the diaries are collected.
A total of 46 patients have been enrolled in the study and have not dropped out.
The p value was calculated using the Fischer's two-tailed exact test.
The average days to the first outbreak after the sensitization dose was also measured. […] The A: placebo, 0% SADBE in DMSO.

[4] = Clinical trial of SADBE: rash (erythema) from the sensitization dose; assay type: in vivo, human; details: pooled treatment groups B and C, 2% SADBE in DMSO
Excerpt: Visit 1: Upon entering the study, patients are sensitized to squaric acid dibutyl ester (SADBE) by dipping a cotton-tipped swab in a 2% solution of SADBE in DMSO and swabbing a 1 cm^2 area on the forearm. Participants are told then to wait at least 2 weeks for their first treatment.

warts = details: intralesional injection together with antigens versus antigen alone; differences not statistically significant; US 20050175634; cited from earlier work
[5] = third treatment, 0.1% DNCB solution on cold sore

Molecule: O=[N+]([O-])c1ccc(Cl)c([N+](=O)[O-])c1 [DNCB, 1-chloro-2,4-dinitrobenzene]
- severity and duration of subsequent outbreaks ([1]; 4 weeks following the first 0.2% DNCB treatment of the lip lesion): much less severe and of much shorter duration than before
- time without any outbreak after treatment ([1]; after the third treatment (0.1% DNCB), to the present time): 6 months
- erythema in the area of the cold sore ([1]; first application of 0.2% DNCB in acetone to cold sore on lower lip, left overnight): mild erythema
- time to resolution of the treated cold sore ([1]; first application of 0.2% DNCB in acetone to the lip lesion, typical outbreaks before lasted 7-10 days): about 7 days
- time without any outbreak after treatment ([1]; following the second DNCB treatment at the site of a lesion): 6 months
- frequency of cold sore outbreaks after treatment ([1]; next 4 weeks following the first 0.2% DNCB treatment): approximately weekly
- duration of each subsequent outbreak ([1]; outbreaks in the 4 weeks following the first 0.2% DNCB treatment): one
- inflammation and erythema with the application ([1]; second application of 0.2% DNCB in acetone to lip lesion, about two months after the first): more severe than they had been with the first application
- duration of the treated HSV outbreak ([1]; second application of 0.2% DNCB to lip lesion): about 7 days
- DTH response at the cold sore [1, 5]: moderate DTH response
- duration of the treated HSV outbreak [1, 5]: about 10 days
- erythema on forearm ([2]; 0.1% DNCB solution): almost no erythema
- erythema on forearm ([2]; 0.2% DNCB solution): mild but easily seen erythema
- rash after presensitizing application ([2]; 2% DNCB solution in acetone, cotton-tipped swab, two spots on forearm, first application): No rash developed
- duration of rash after second application ([2]; 2% DNCB solution on forearm, two weeks after the sensitizing dose): 3 weeks
- rash after second application ([2]; 2% DNCB solution on forearm, two weeks after the sensitizing dose, different spots): very strong but localized rash

Molecule: CCCCOc1c(OCCCC)c(=O)c1=O [SADBE, 3,4-Dibutoxy-3-cyclobutene-1,2-dione]
- Persons having an outbreak within X days after the sensitization dose ([3]; <120 days, group B): 6 (of 16)
- Persons having an outbreak within X days after the sensitization dose ([3]; <120 days, group C): 4 (of 15)
- Days to first new outbreak after sensitization dose on upper arm ([3]; each patient, 2% SADBE applied to the inner aspect of the upper arm): 37 days and 41 days and 50 days and 80 days and 91 days and >120 days (19×) and 14 days (2×) and 15 days and 18 days and 34 days
- Average days to first outbreak after the sensitization dose ([3]; group B, n 16): 88.5 days
- Average days to first outbreak after the sensitization dose ([3]; group C, n 15): 94.7 days
- Average days to first outbreak after the sensitization dose ([3]; pooled groups B + C, n 31, p=0.041 vs placebo, t test): 91.5* days
- proportion who had a first outbreak between 30 and 120 days after receiving the sensitization dose ([3]; pooled groups B and C): 5 of 26
- effect on future HSV outbreaks ([3]; single topical sensitization dose of 2% SADBE in DMSO on the upper arm, no application at the lesion): prevented future HSV outbreaks; also recorded: usually did not have a subsequent outbreak during the study time
- median time to the next HSV outbreak versus placebo ([3]; treated patients who did not develop a visible erythema at the site of application): longer median time to the next HSV outbreak than patients receiving placebo
- median time to the next outbreak, outbreaks occurring in the 21 days after the sensitization dose excluded ([3]; treatment group, counting from the day of the sensitization dose): greater than 120 days
- median time to the next outbreak counting from day 21 after the sensitization dose ([3]; treatment group, outbreaks in first 21 days excluded): greater than 99 days
- Persons having an outbreak within X days after the sensitization dose ([3]; within 30 days, group B (2% SADBE in DMSO sensitization, 0.5% treatment solution)): 2 (of 16)
- Persons having an outbreak within X days after the sensitization dose ([3]; within 30 days, group C (2% SADBE in DMSO sensitization, 0.2% treatment solution)): 3 (of 15)
- Persons having an outbreak within X days after the sensitization dose ([3]; within 30 days, pooled groups B + C (of 31), p vs placebo 0.26): 5
- Persons having an outbreak within X days after the sensitization dose ([3]; within 45 days, group B): 4 (of 16)
- Persons having an outbreak within X days after the sensitization dose ([3]; within 45 days, group C): 4 (of 15)
- Persons having an outbreak within X days after the sensitization dose ([3]; within 45 days, pooled groups B + C (of 31), p vs placebo 0.099): 8
- Persons having an outbreak within X days after the sensitization dose ([3]; within 60 days, group B): 5 (of 16)
- Persons having an outbreak within X days after the sensitization dose ([3]; within 60 days, group C): 4 (of 15)
- Persons having an outbreak within X days after the sensitization dose ([3]; within 60 days, pooled groups B + C (of 31), p vs placebo 0.0583): 9
- subjects who had a rash (erythema) from the sensitization dose [4]: 17 of 28

Molecule: GM-CSF: cytokine used as immune response enhancer
- fraction of patients responding to treatment (warts): A larger fraction of patients receiving interferon or GM-CSF together with the antigens responded to treatment than patients receiving antigen alone

Molecule: interferon alpha
- fraction of patients responding to treatment (warts): A larger fraction of patients receiving interferon or GM-CSF together with the antigens responded to treatment than patients receiving antigen alone
